From patent US10363248B2, “Salts of heterocyclic modulators of HIF activity for treatment of disease” (priority 2014, dated 2019)
“And” between values parts separate entries of the source, which are not always exact repeats. Identical values can stand only once. “Also recorded” adds a separate entry of the source. Counter-ions that a name gives are not always drawn. Like-named read-outs stand apart in the source and are kept apart here.

Experiments:
[1] = Plasma concentration-time data and PK parameters after a PO dose of 10 mg/kg in female CD1 nude mice (Groups 1-5)
Experimental: (§1) Pharmacokinetic studies were performed in female CD-1 nude mice. —Either 10 or 50 mg/kg of each test article was administered PO, QD in 0.5% methylcellulose aqueous solution or suspension. […] Plasma concentrations were analyzed using a LC/MS method and the pharmacokinetic parameters computed using a noncompartmental method.

[2] = Plasma concentration in female CD-1 nude mice, formulation groups A-C; assay type: in vivo; settings: for concentration at 24 h: group mean; for concentration at 6 h: time point 6 h; for concentration at 6 h / concentration at 8 h: individual mouse; for concentration at 8 h: time point 8 h
Experimental: as §1

TMD8 cells = assay: Diffuse large B-cell lymphoma (DLBCL) assay, viable cells; assay type: cell-based; settings: varying concentrations, 7 days; Guava ViaCount; FIG. 1
Experimental: Equal number of TMD8 cells were plated and treated with varying concentrations of the compound of Example 80 for 7 days. Percent of viable cells was determined using Guava ViaCount reagents (EMD Millipore cat #4000-0040) that contains proprietary dyes that enable the determination of the number of live and dead cells in a sample (FIG. 1).

OCI-AML3 cell line = assay: Acute myeloid leukemia cell viability; assay type: cell-based; settings: various concentrations, 2 days; normalized to DMSO; FIG. 6
Experimental: (§2) The OCI-AML3 cell line was treated with various concentrations of compound for 2 days and the percent of viable cells normalized to control cells treated with DMSO (FIG. 6). OCI-AML3 cells constitutively expressing luciferase were tail vein injected in NSG nude mice. 17 days after cell injection, luciferin was injected into animals and luciferase signal was measured using an IVIS imaging system to determine tumor burden and for randomization of subjects into study groups. On day 18, animals began receiving daily oral doses of vehicle or 10 mpk of the compound of Example 80 which continued throughout the study. On day 28, imaging was performed again to determine tumor burden (FIG. 7).

293T-HRE-GFP-luc cells = assay: Cell-based reporter assay for IC50 determinations; settings: hypoxia for 6 hrs. (1% O2); luminescence; read-out: IC50 Classification
Experimental: IC50 values were calculated using a four-parameter logistic curve fit.

NB-1 xenografts = assay: NB-1 xenograft model; assay type: in vivo, CD-1 nude mice; settings: daily oral treatment with 10 mg/kg; FIG. 5
D423 cells = assay: Glioblastoma cellular assay D423; assay type: cell-based; settings: various concentrations; FIG. 4
Description: (§3) NB-1, Gli56, and D423 cell lines are deleted for ENO-1 (GLI56 and D423) or PGD, which renders them with reduced glycolytic capacity (Muller, F. et al., Nature, 2012, 488, 337-42).

Gli56 cells = assay: Glioblastoma cellular assay Gli56; assay type: cell-based; settings: various concentrations
Description: as §3

OCI-AML3 cells = assay: OCI-AML3 human leukemia model in NSG mice; assay type: in vivo, NSG nude mice; settings: daily oral 10 mg/kg
Experimental: as §2

NB-1 cells = assay: Neuroblastoma cellular assay; assay type: cell-based; settings: various concentrations
Description: as §3

[3] = Dynamic vapor sorption (DVS); assay type: physicochemical; settings: for DVS Sorption (%): weight gain from 0 to 80% RH, 25° C; for form transformation after DVS test: XRPD after DVS; for hygroscopicity classification: according to DVS result
Experimental: Transfer about 10 mg of sample into a DVS (DVS Advantage-1, SMS) and record the weight change with respect to the atmospheric humidity at 25° C. Use the following parameters: Equilibrium: dm/dt: 0.01%/min. (for min: 10 min and max: 180 min). Drying: 0% RH for 120 min RH (%) measurement step: 10%; RH (%) measurement step scope: 0-90-0%

[4] = time point 2 h, individual mice, PO, QD, 10 or 50 mg/kg, 2,2,2-trifluoroacetate
[5] = time point 24 h, individual mice, PO, QD, 10 or 50 mg/kg, 2,2,2-trifluoroacetate
[6] = time point 2 h, individual mice, PO, QD, 10 or 50 mg/kg, listed as A
[7] = time point 24 h, individual mice, PO, QD, 10 or 50 mg/kg, listed as A
[8] = female, CD-1 nude, mouse, in vivo, po, 10 mg/kg
[9] = female, CD-1 nude, mouse, oral, read-out: Calc. Conc.
[10] = female, CD-1 nude, mouse, oral, read-out: Calc. Conc. (ng/mL)
[11] = time point 2 h, individual mice, PO, QD, 10 or 50 mg/kg, listed as C, methanesulfonate
[12] = time point <24, individual mouse

Compound: Cc1nc(-c2nc(-c3ccc(OC(F)(F)F)cc3)no2)nn1Cc1cccc(N2CCC(S(C)(=O)=O)CC2)c1.O=C(O)C(F)(F)F [5-(5-methyl-1-(3-(4-(methylsulfonyl)piperidin-1-yl)benzyl)-1H-1,2,4-triazol-3-yl)-3-(4-(trifluoromethoxy)phenyl)-1,2,4-oxadiazole 2,2,2-trifluoroacetate]
- plasma concentrations compared with the free base ([1]; CD-1 mice, PO): significantly higher

Compound: Cc1nc(-c2nc(-c3ccc(OC(F)(F)F)cc3)no2)nn1Cc1cccc(N2CCC(S(C)(=O)=O)CC2)c1 [B, 5-(5-methyl-1-(3-(4-(methylsulfonyl)piperidin-1-yl)benzyl)-1H-1,2,4-triazol-3-yl)-3-(4-(trifluoromethoxy)phenyl)-1,2,4-oxadiazole 2,2,2-trifluoroacetate]
- concentration at 24 h ([2]; time point 2 h, PO, QD, 10 or 50 mg/kg, 2,2,2-trifluoroacetate): 834.8 nM
- Calc. Conc. (nM) [2, 4]: 1131.9 nM and 748.0 nM and 793.6 nM and 632.1 nM and 868.2 nM
- Calc. Conc. (ng/mL) [2, 4]: 636.4 ng/mL and 420.5 ng/mL and 446.2 ng/mL and 355.4 ng/mL and 488.1 ng/mL
- concentration at 24 h ([2]; time point 24 h, PO, QD, 10 or 50 mg/kg, 2,2,2-trifluoroacetate): 776.4 nM
- Calc. Conc. (nM) [2, 5]: 1426.5 nM and 220.7 nM and 1116.1 nM and 490.3 nM and 628.2 nM
- Calc. Conc. (ng/mL) [2, 5]: 802.0 ng/mL and 124.1 ng/mL and 627.5 ng/mL and 275.6 ng/mL and 353.2 ng/mL

Compound: Cc1nc(-c2nc(-c3ccc(OC(F)(F)F)cc3)no2)nn1Cc1cccc(N2CCC(S(C)(=O)=O)CC2)c1 [Example 80, 4-Methanesulfonyl-1-{3-[(5-methyl-3-{3-[4-(trifluoromethoxy)phenyl]-1,2,4-oxadiazol-5-yl}-1H-1,2,4-triazol-1-yl)methyl]phenyl}piperidine]
- number/percent of viable TMD8 cells (TMD8 cells): reduced number of viable cells; also recorded: respond robustly
- number of viable OCI-AML3 cells (OCI-AML3 cell line): reduced number of viable cells
- IC50 (293T-HRE-GFP-luc cells): < 100 nM
- growth of NB-1 xenografts (tumor growth) (NB-1 xenografts): reduces the tumor growth
- concentration at 24 h ([2]; female, CD-1 nude, mouse, oral, time point 24 h, PO, QD, 10 or 50 mg/kg): 414 nM
- concentration at 24 h ([2]; time point 2 h, PO, QD, 10 or 50 mg/kg, listed as A): 561.2 nM
- Calc. Conc. (nM) [2, 6]: 591.7 nM and 510.0 nM and 285.4 nM and 657.3 nM and 761.7 nM
- Calc. Conc. (ng/mL) [2, 6]: 332.7 ng/mL and 286.7 ng/mL and 160.4 ng/mL and 369.5 ng/mL and 428.2 ng/mL
- Calc. Conc. (nM) [2, 7]: 987.2 nM and 307.2 nM and 342.7 nM and 233.3 nM and 201.3 nM
- Calc. Conc. (ng/mL) [2, 7]: 555.0 ng/mL and 172.7 ng/mL and 192.7 ng/mL and 131.2 ng/mL and 113.1 ng/mL
- number of viable D423 cells (D423 cells): reduced number of viable cells; also recorded: cell numbers are significantly reduced
- cell death in Gli56 cells (Gli56 cells): cell death readily apparent
- number of viable Gli56 cells (Gli56 cells; FIG. 3): reduced number of viable cells; also recorded: cell numbers are significantly reduced
- AUCINF [1, 8]: 16.2 µM·h
- AUClast [1, 8]: 12.1 µM·h
- Cmax [1, 8]: 959 nM
- Terminal t1/2 [1, 8]: 12.4 h
- Concentration Mean ([1]; female, CD-1 nude, mouse, in vivo, po, 10 mg/kg, 0.083 hr): 28.9 nM
- Concentration Mean ([1]; female, CD-1 nude, mouse, in vivo, po, 10 mg/kg, 0.25 hr): 280 nM
- Concentration Mean ([1]; female, CD-1 nude, mouse, in vivo, po, 10 mg/kg, 0.5 hr): 440 nM
- disease burden measured by IVIS imaging (OCI-AML3 cells; FIG. 7): reduces disease burden
- survival (OCI-AML3 cells; relative to vehicle, FIG. 8, 10 mg/kg): extends survival; also recorded: significantly increased their survival
- cell death in NB-1 cells (NB-1 cells): cell death readily apparent
- number of viable NB-1 cells (NB-1 cells; FIG. 2): reduced number of viable cells; also recorded: cell numbers are significantly reduced
- DVS Sorption (%) [3]: 0.16%

Compound: CS(=O)(=O)O.Cc1nc(-c2nc(-c3ccc(OC(F)(F)F)cc3)no2)nn1Cc1cccc(N2CCC(S(C)(=O)=O)CC2)c1 [MESYLATE SALT, 1-(3-((5-methyl-3-(3-(4-(trifluoromethoxy)phenyl)-1,2,4-oxadiazol-5-yl)-1H-1,2,4-triazol-1-yl)methyl)phenyl)-4-(methylsulfonyl)piperidin-1-ium methanesulfonate]
- concentration at 6 h [2, 9]: 2950 nM
- concentration at 6 h [2, 10]: 1660 ng/mL
- concentration at 8 h [2, 9]: 2910 nM
- concentration at 8 h [2, 10]: 1640 ng/mL
- concentration at 24 h ([2]; time point 2 h, PO, QD, 10 or 50 mg/kg): 2249.9 nM
- Calc. Conc. (nM) [2, 11]: 2676.0 nM and 1457.7 nM and 2725.3 nM and 2248.5 nM and 2141.9 nM
- Calc. Conc. (ng/mL) [2, 11]: 1504.5 ng/mL and 819.5 ng/mL and 1532.2 ng/mL and 1264.1 ng/mL and 1204.2 ng/mL
- Calc. Conc. (nM) [2, 12]: 1469.8 nM
- Calc. Conc. (ng/mL) [2, 12]: 826.3 ng/mL
- oral bioavailability in comparison to the free base ([1]; mouse, in vivo, po): improved oral bioavailability
- plasma concentrations compared with the free base ([1]; mouse, in vivo, po): significantly higher
- form transformation after DVS test [3]: No form transformation was observed
- hygroscopicity classification [3]: hygroscopic
- DVS Sorption (%) [3]: 2.47%

Compound: Cc1nc(-c2nc(-c3ccc(OC(F)(F)F)cc3)no2)nn1Cc1cccc(N2CCC(S(C)(=O)=O)CC2)c1 [HYDROCHLORIDE SALT, 5-(5-methyl-1-(3-(4-(methylsulfonyl)piperidin-1-yl)benzyl)-1H-1,2,4-triazol-3-yl)-3-(4-(trifluoromethoxy)phenyl)-1,2,4-oxadiazole hydrochloride]
- oral bioavailability in comparison to the free base ([1]; mouse, in vivo, po): improved oral bioavailability
- form transformation after DVS test [3]: No form transformation was observed
- hygroscopicity classification [3]: slightly hygroscopic
- DVS Sorption (%) ([3]; listed as HCl, hydrochloride): 1.59%
- DVS Sorption (%) ([3]; listed as hydrochloride candidate, hydrochloride): 1.59%

Compound: Cc1nc(-c2nc(-c3ccc(OC(F)(F)F)cc3)no2)nn1Cc1cccc(N2CCC(S(C)(=O)=O)CC2)c1.Cl [5-(5-methyl-1-(3-(4-(methylsulfonyl)piperidin-1-yl)benzyl)-1H-1,2,4-triazol-3-yl)-3-(4-(trifluoromethoxy)phenyl)-1,2,4-oxadiazole hydrochloride]
- plasma concentrations compared with the free base ([1]; mouse, in vivo, po): significantly higher

Compound: Cc1nc(-c2nc(-c3ccc(OC(F)(F)F)cc3)no2)nn1Cc1cccc(N2CCC(S(C)(=O)=O)CC2)c1.O=S(=O)(O)c1ccccc1 [BESYLATE SALT, 1-(3-((5-methyl-3-(3-(4-(trifluoromethoxy)phenyl)-1,2,4-oxadiazol-5-yl)-1H-1,2,4-triazol-1-yl)methyl)phenyl)-4-(methylsulfonyl)piperidin-1-ium benzenesulfonate]
- oral bioavailability in comparison to the free base ([1]; mouse, in vivo, po): improved oral bioavailability
- plasma concentrations compared with the free base ([1]; mouse, in vivo, po): significantly higher
